# ChEMBL document CHEMBL1149774, “Synthesis of N-(5,7-diamino-3-phenyl-quinoxalin-2-yl)-3,4,5-substituted anilines and N-[4[(5,7-diamino-3-phenylquinoxalin-2-yl)amino]benzoyl]-l-glutamic acid diethyl ester: evaluation of in vitro anti-cancer and anti-folate activities” (Eur J Med Chem, 2008)
# Active and inactive are the calls of the source. The rule behind the calls is not given here.
# Key:
# NCI-H322M = assay: Growth inhibition of human NCI-H322M cells after 48 hrs by SRB staining method; type: functional
# COLO 205 = assay: Growth inhibition of human COLO205 cells after 48 hrs by SRB staining method; type: functional; details: COLO 205, 48 h
# HCC 2998 = assay: Growth inhibition of human HCC2998 cells after 48 hrs by SRB staining method; type: functional; details: HCC 2998, 48 h
# HCT-116 = assay: Growth inhibition of human HCT116 cells after 48 hrs by SRB staining method; type: functional; details: HCT-116, 48 h
# SF-539 = assay: Growth inhibition of human SF539 cells after 48 hrs by SRB staining method; type: functional; details: SF-539, 48 h
# U-251 = assay: Growth inhibition of human U251 cells after 48 hrs by SRB staining method; type: functional; details: U-251, 48 h
# SK-MEL-28 = assay: Growth inhibition of human SK-MEL-28 cells after 48 hrs by SRB staining method; type: functional; details: SK-MEL-28, 48 h
# OVCAR-3 = assay: Growth inhibition of human OVCAR-3 cells after 48 hrs by SRB staining method; type: functional; details: OVCAR-3, 48 h
# OVCAR-5 = assay: Growth inhibition of human OVCAR5 cells after 48 hrs by SRB staining method; type: functional; details: OVCAR-5, 48 h
# OVCAR-8 = assay: Growth inhibition of human OVCAR8 cells after 48 hrs by SRB staining method; type: functional; details: OVCAR-8, 48 h
# CAKI-1 = assay: Growth inhibition of human CAKI1 cells after 48 hrs by SRB staining method; type: functional; details: CAKI-1, 48 h
# TK-10 = assay: Growth inhibition of human TK10 cells after 48 hrs by SRB staining method; type: functional; details: TK-10, 48 h
# MDA-MB-231 = assay: Growth inhibition of human MDA-MB-231 cells after 48 hrs by SRB staining method; type: functional; details: MDA-MB-231, 48 h
# BT-549 = assay: Growth inhibition of human BT549 cells after 48 hrs by SRB staining method; type: functional; details: BT-549, 48 h
# [1] = biological target: T1, Dihydrofolate reductase (Homo sapiens) (UniProt P00374); assay: Inhibition of human dihydrofolate reductase at 10 uM
# T1 sequence (whole entry): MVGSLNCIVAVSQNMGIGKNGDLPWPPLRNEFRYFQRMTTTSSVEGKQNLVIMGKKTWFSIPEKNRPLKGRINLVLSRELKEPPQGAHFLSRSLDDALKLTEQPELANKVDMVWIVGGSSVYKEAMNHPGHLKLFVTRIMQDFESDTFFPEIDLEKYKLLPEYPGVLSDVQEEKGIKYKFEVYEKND
# A549 = assay: Growth inhibition of human A549 cells after 48 hrs by SRB staining method; type: functional; details: A549, 48 h
# SW-620 = assay: Growth inhibition of human SW620 cells after 48 hrs by SRB staining method; type: functional; details: SW-620, 48 h
# SF-268 = assay: Growth inhibition of human SF268 cells after 48 hrs by SRB staining method; type: functional; details: SF-268, 48 h
# K562 = assay: Growth inhibition of human K562 cells after 48 hrs by SRB staining method; type: functional; details: K562, 48 h
# RPMI-8226 = assay: Growth inhibition of human RPMI8226 cells after 48 hrs by SRB staining method; type: functional; details: RPMI-8226, 48 h
# SR = assay: Growth inhibition of human SR cells after 48 hrs by SRB staining method; type: functional
# MOLT-4 = assay: Growth inhibition of human MOLT4 cells after 48 hrs by SRB staining method; type: functional; details: MOLT-4, 48 h
# EKVX = assay: Growth inhibition of human EKVX cells after 48 hrs by SRB staining method; type: functional
# Thymidylate synthase = biological target: T2, Thymidylate synthase (Lactobacillus casei, UniProt P00469)
# T2 sequence (P00469 whole entry): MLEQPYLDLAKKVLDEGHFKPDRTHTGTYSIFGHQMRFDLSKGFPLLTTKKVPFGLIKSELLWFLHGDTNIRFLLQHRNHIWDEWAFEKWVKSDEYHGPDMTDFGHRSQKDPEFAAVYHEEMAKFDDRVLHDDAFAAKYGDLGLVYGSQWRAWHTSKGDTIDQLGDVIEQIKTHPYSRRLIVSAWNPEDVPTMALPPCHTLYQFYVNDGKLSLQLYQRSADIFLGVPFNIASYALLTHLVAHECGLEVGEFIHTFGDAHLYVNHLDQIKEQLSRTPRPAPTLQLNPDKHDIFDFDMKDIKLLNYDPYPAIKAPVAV
# Description: Inhibition of Lactobacillus casei thymidylate synthase
# [2] = read-out: pLC50 (the source's name) (converted)
smiles,measurement,setting,value
COc1ccc(Nc2nc3cc(N)cc(N)c3nc2-c2ccccc2)cc1OC,GI50,NCI-H322M,> 100 µM
same,LC50,NCI-H322M,> 100 µM
same,TGI,NCI-H322M; read-out: pTGI (converted),25.1 µM
same,GI50,COLO 205,20 µM
same,LC50,COLO 205,85.1 µM
same,TGI,COLO 205; read-out: pTGI (converted),40.7 µM
same,GI50,HCC 2998,18.2 µM
same,LC50,HCC 2998,85.1 µM
same,TGI,HCC 2998; read-out: pTGI (converted),39.8 µM
same,GI50,HCT-116,14.8 µM
same,LC50,HCT-116,58.9 µM
same,TGI,HCT-116; read-out: pTGI (converted),29.5 µM
same,GI50,SF-539,16.2 µM
same,LC50,SF-539,87.1 µM
same,TGI,SF-539; read-out: pTGI (converted),37.2 µM
same,GI50,U-251,25.7 µM
same,LC50 (50% lethal concentration),U-251,> 100 µM
same,TGI,U-251; read-out: pTGI (converted),> 100 µM
same,GI50,SK-MEL-28,21.4 µM
same,CC50,SK-MEL-28; [2],> 100 µM
same,TGI,SK-MEL-28; read-out: pTGI (converted),50.1 µM
same,GI50,OVCAR-3,30.2 µM
same,LC50,OVCAR-3,> 100 µM
same,TGI,OVCAR-3; read-out: pTGI (converted),> 100 µM
same,GI50,OVCAR-5,29.5 µM
same,LC50,OVCAR-5,> 100 µM
same,TGI,OVCAR-5; read-out: pTGI (converted),72.4 µM
same,GI50,OVCAR-8,33.9 µM
same,CC50,OVCAR-8; [2],> 100 µM
same,TGI,OVCAR-8; read-out: pTGI (converted),> 100 µM
same,GI50,CAKI-1,18.2 µM
same,CC50,CAKI-1; [2],> 100 µM
same,TGI,CAKI-1; read-out: pTGI (converted),66.1 µM
same,GI50,TK-10,20.9 µM
same,CC50,TK-10; [2],> 100 µM
same,TGI,TK-10; read-out: pTGI (converted),58.9 µM
same,GI50,MDA-MB-231,4.9 µM
same,CC50,MDA-MB-231; [2],46.8 µM
same,TGI,MDA-MB-231; read-out: pTGI (converted),18.6 µM
same,GI50,BT-549,25.7 µM
same,CC50,BT-549; [2],> 100 µM
same,TGI,BT-549; read-out: pTGI (converted),81.3 µM
same,Activity,[1],inactive
same,GI50,A549,35.5 µM
same,CC50,A549; [2],> 100 µM
same,TGI,A549; read-out: pTGI (converted),> 100 µM
same,GI50,SW-620,15.5 µM
same,CC50,SW-620; [2],83.2 µM
same,TGI,SW-620; read-out: pTGI (converted),36.3 µM
same,GI50,SF-268,14.1 µM
same,CC50,SF-268; [2],> 100 µM
same,TGI,SF-268; read-out: pTGI (converted),46.8 µM
same,GI50,K562,20.4 µM
same,CC50,K562; [2],> 100 µM
same,TGI,K562; read-out: pTGI (converted),70.8 µM
same,GI50,RPMI-8226,7.94 µM
same,CC50,RPMI-8226; [2],87.1 µM
same,TGI,RPMI-8226; read-out: pTGI (converted),28.2 µM
same,GI50,SR,2.69 µM
same,CC50,SR; [2],> 100 µM
same,TGI,SR; read-out: pTGI (converted),21.9 µM
same,GI50,MOLT-4,6.92 µM
same,CC50,MOLT-4; [2],> 100 µM
same,TGI,MOLT-4; read-out: pTGI (converted),> 100 µM
same,GI50,EKVX,25.7 µM
same,CC50,EKVX; [2],> 100 µM
same,TGI,EKVX; read-out: pTGI (converted),70.8 µM
same,Ki,Thymidylate synthase,6 µM
